Experimental data reported in BindingDB's records for doi:10.1021/np070341r (Leibniz-Institute For Natural Product Research and …, 2008).

Molecular target: Dual specificity tyrosine-phosphorylation-regulated kinase 1A (Homo sapiens, UniProt Q13627)
Test: Inhibition of human recombinant DYRK1A

| SMILES | IC50 [µM] |
| --- | --- |
| COC(=O)[C@@]1(Cc2ccc(O)c(CC=C(C)C)c2)OC(=O)C(=O)C1c1ccc(O)cc1 (stereo partly drawn) [(S)-methyl 4-hydroxy-2-(4-hydroxy-3-(3-methylbut-2-enyl)benzyl)-3-(4-hydroxyphenyl)-5-oxo-2,5-dihydrofuran-2-carboxylate] | > 100 |
| COC(=O)[C@]1(Cc2ccc(OS(=O)(=O)O)c(CC=C(C)C)c2)OC(=O)C(=O)C1c1ccc(O)cc1 (some centres not stated) [butyrolactone I 4''-sulfate] | > 100 |
